For orientation: AC50 means the concentration giving half of the maximal activity seen. A low value points to activity at low concentration.

The target in test [1] is T1, Muscarinic acetylcholine receptor M2 (Homo sapiens, UniProt P08172).
T1 sequence (P08172 whole entry): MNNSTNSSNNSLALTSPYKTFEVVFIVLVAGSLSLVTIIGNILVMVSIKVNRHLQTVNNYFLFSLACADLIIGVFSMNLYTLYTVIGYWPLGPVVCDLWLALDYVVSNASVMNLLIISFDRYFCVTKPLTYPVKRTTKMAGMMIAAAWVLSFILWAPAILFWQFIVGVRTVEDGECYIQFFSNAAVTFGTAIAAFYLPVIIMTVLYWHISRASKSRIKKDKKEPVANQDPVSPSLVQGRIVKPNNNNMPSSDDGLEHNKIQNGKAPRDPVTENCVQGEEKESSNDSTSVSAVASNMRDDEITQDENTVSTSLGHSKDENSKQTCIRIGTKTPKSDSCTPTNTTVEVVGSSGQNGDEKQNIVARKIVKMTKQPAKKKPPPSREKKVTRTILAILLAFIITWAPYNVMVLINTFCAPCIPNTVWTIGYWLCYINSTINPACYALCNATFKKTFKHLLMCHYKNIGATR

For another test, the target named is D(3) dopamine receptor (Homo sapiens, UniProt P35462).
The next test addresses Prothrombin (Homo sapiens, UniProt P00734). Type of test: functional.
A further test concerns the target T2, Progesterone receptor (Homo sapiens, UniProt P06401).
T2 sequence (P06401 whole entry): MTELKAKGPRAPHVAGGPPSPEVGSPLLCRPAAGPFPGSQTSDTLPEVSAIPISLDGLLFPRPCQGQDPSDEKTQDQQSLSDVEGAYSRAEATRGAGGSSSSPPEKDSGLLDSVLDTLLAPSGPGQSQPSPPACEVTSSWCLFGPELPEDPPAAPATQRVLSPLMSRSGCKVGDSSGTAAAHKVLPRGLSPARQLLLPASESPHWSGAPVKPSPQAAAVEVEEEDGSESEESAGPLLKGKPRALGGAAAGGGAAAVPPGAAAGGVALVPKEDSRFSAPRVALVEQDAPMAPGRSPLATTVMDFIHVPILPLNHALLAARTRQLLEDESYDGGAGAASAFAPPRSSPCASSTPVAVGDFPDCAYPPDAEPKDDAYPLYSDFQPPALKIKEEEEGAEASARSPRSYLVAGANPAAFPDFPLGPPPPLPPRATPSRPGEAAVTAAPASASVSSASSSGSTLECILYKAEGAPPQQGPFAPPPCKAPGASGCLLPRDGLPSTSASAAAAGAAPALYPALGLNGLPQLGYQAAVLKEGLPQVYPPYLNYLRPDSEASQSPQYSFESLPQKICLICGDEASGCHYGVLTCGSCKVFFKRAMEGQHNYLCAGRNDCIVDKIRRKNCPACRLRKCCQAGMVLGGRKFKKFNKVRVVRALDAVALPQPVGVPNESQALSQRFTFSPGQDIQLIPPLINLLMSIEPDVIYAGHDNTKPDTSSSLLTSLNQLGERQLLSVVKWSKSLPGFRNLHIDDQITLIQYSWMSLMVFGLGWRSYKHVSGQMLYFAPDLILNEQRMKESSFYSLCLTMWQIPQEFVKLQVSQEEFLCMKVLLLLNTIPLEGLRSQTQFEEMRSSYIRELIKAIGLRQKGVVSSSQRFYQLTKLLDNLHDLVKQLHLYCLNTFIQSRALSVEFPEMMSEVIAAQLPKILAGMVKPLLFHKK

The target of test [2] is Sodium-dependent noradrenaline transporter (Homo sapiens, UniProt P23975).
The target in a further test is T3, Thromboxane A2 receptor (Homo sapiens, UniProt P21731).
T3 sequence (P21731 whole entry): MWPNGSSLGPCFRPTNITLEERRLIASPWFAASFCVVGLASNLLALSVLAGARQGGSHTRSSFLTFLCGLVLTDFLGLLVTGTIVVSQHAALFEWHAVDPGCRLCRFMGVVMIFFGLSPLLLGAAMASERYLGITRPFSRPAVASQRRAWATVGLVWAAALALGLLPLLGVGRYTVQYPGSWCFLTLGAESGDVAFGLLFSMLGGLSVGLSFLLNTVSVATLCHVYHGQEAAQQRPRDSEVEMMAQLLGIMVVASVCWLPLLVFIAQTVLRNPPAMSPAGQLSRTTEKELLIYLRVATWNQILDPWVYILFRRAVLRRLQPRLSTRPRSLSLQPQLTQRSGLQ
Type of test: functional, cell-based.

The target in test [3] is 3',5'-cyclic-AMP phosphodiesterase 4D (Homo sapiens, UniProt Q08499). It counts as functional.
For test [4], the target named is T4, Prostaglandin G/H synthase 1 (Rattus norvegicus, UniProt Q63921).
T4 sequence (Q63921 whole entry): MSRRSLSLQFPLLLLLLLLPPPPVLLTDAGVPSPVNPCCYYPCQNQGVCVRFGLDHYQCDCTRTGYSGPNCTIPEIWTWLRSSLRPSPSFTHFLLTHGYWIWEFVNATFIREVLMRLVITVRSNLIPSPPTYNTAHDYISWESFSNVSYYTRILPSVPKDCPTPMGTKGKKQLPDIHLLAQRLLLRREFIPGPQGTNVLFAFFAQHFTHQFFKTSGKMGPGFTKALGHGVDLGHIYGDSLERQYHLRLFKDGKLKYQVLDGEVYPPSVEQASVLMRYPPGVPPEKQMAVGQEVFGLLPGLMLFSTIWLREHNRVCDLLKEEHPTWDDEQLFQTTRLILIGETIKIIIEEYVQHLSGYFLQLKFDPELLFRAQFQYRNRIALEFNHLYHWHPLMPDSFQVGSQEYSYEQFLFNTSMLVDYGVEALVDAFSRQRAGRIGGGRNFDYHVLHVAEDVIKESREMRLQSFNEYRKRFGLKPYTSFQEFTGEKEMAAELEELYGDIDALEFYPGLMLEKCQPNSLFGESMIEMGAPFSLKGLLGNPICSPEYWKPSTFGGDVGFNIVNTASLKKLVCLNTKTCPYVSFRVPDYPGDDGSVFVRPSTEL
It counts as functional.
Further: assay procedure not described here.

Sequence of 3',5'-cyclic-AMP phosphodiesterase 4D (Q08499 whole entry): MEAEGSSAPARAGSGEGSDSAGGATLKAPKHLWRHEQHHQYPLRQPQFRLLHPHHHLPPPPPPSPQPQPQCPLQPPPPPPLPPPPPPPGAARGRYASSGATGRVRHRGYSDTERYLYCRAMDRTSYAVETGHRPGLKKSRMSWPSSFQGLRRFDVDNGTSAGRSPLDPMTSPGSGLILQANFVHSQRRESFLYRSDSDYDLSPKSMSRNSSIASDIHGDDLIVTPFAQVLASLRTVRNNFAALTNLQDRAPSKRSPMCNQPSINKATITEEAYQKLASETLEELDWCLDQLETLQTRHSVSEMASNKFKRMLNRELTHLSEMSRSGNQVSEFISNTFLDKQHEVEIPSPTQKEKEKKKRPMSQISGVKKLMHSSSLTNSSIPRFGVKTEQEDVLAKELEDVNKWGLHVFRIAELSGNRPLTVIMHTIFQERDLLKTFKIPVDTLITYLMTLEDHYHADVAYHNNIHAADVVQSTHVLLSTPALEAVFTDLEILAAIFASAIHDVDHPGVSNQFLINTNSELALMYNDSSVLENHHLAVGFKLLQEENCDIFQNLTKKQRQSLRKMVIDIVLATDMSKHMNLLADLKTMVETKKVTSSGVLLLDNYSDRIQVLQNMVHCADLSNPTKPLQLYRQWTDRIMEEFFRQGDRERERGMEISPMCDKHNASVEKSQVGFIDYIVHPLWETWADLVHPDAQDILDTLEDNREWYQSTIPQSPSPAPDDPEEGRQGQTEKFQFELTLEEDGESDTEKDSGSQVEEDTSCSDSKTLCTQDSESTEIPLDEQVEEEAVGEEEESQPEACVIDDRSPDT
Sequence of D(3) dopamine receptor (P35462 whole entry): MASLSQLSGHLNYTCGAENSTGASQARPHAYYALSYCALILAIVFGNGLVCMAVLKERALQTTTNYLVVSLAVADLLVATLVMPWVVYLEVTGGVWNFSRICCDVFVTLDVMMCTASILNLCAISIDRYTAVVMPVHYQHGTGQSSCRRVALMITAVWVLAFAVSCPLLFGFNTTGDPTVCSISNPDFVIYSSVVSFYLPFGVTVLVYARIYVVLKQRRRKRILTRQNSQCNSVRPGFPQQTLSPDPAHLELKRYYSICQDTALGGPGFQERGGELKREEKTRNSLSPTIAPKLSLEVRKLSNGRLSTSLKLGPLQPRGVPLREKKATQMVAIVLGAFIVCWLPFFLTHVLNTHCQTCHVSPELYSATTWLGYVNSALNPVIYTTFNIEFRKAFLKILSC
Sequence of Sodium-dependent noradrenaline transporter (P23975 whole entry): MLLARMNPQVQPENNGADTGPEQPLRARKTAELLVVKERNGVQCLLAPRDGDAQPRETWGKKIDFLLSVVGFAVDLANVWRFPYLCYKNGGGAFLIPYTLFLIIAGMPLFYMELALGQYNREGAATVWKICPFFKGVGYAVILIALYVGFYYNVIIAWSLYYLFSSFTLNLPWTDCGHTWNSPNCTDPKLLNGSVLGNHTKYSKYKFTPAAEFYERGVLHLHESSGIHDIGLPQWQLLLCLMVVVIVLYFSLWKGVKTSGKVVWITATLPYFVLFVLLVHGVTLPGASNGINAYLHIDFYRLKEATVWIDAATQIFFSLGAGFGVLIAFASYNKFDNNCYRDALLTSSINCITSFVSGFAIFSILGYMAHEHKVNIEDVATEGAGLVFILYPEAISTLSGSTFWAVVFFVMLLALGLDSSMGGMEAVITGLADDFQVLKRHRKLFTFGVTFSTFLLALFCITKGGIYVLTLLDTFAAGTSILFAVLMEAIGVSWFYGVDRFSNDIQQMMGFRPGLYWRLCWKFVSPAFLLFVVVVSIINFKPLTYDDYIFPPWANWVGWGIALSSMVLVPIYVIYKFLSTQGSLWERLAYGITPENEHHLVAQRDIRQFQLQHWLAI

As to `CC[C@@H]1C[C@]1(NC(=O)[C@@H]1C[C@@H]2CN1C(=O)[C@H](C(C)(C)C)NC(=O)OCC(C)(C)CCCCc1cccc3c1CN(C3)C(=O)O2)C(=O)NS(=O)(=O)C1CC1`, the AC50 was over 30 µM in test [1]; over 30 µM on D(3) dopamine receptor; over 30 µM at Prothrombin; over 30 µM at Progesterone receptor; over 30 µM in test [2]; over 3 µM at Thromboxane A2 receptor.
On to `CC(=O)NO` [ACETOHYDROXAMIC ACID], for which the AC50 (in test [1]; at D(3) dopamine receptor; at Prothrombin; on Progesterone receptor; in test [2]; on Thromboxane A2 receptor) was over 30 µM in each case.
Turning to `CC(=O)NCCCCCC(=O)O` [ACEXAMIC ACID], the AC50 (in test [1]; at D(3) dopamine receptor; on Prothrombin; on Progesterone receptor; in test [2]; at Thromboxane A2 receptor) was over 30 µM in each case.
Turning to `CC(=O)Nc1ccc(CC(=O)O)cc1` [ACTARIT], the AC50 in test [3] and in test [4] was over 30 µM in each case.
As to `C=C(C)CNc1ccc(C(C)C(=O)O)cc1` (stereo not drawn) [ALMINOPROFEN], the AC50 (in test [1]; at D(3) dopamine receptor; at Prothrombin; on Progesterone receptor; in test [2]; on Thromboxane A2 receptor) was over 30 µM throughout.
For `C[C@H]1CN(C[C@H](Cc2ccccc2)C(=O)NCC(=O)O)CC[C@@]1(C)c1cccc(O)c1` [ALVIMOPAN], the AC50 (in test [1]; on D(3) dopamine receptor; on Prothrombin; on Progesterone receptor; in test [2]; at Thromboxane A2 receptor) was over 30 µM in each case.
In the case of `CC(C(=O)O)c1ccc2oc(-c3ccc(Cl)cc3)nc2c1` (stereo not drawn) [BENOXAPROFEN], in test [3], the half-maximal activity concentration (AC50) is over 30 µM.
With `O=C(O)c1ccccc1` [BENZOIC ACID], the AC50 (in test [1]; at D(3) dopamine receptor; on Prothrombin; on Progesterone receptor; in test [2]; at Thromboxane A2 receptor) was over 30 µM each time.
For `Nc1c(CC(=O)O)cccc1C(=O)c1ccc(Br)cc1` [BROMFENAC], the half-maximal activity concentration (AC50) (in test [1]; on D(3) dopamine receptor; on Prothrombin; at Progesterone receptor; in test [2]; at Thromboxane A2 receptor) was over 30 µM throughout.
For `CC1(C)S[C@@H]2[C@H](NC(=O)C(C(=O)O)c3ccccc3)C(=O)N2[C@H]1C(=O)O` (stereo partly drawn) [CARBENICILLIN], the AC50 in test [3] and in test [4] was over 30 µM throughout.
On to `CC=CC1=C(C(=O)O)N2C(=O)[C@@H](NC(=O)[C@H](N)c3ccc(O)cc3)[C@H]2SC1` [CEFPROZIL], for which the concentration at half-maximal activity (AC50) is over 30 µM in test [3] and 13.7 µM in test [4].
On to `Cc1cc(C2CCCCC2)n(O)c(=O)c1` [CICLOPIROX], for which the AC50 in test [1] is over 30 µM; on D(3) dopamine receptor, over 30 µM; on Prothrombin, over 30 µM; in test [3], over 30 µM; at Progesterone receptor it was over 30 µM; in test [4], over 3 µM. In test [2], this compound had an AC50 of over 30 µM.
As to `CCC(=O)O[C@]1(C(=O)CCl)[C@@H](C)C[C@H]2[C@@H]3CCC4=CC(=O)C=C[C@]4(C)[C@@]3(F)[C@@H](O)C[C@@]21C` [CLOBETASOL PROPIONATE], the AC50 in test [3] and in test [4] was over 30 µM each time.
Turning to `C[C@H]1O[C@@H](O[C@H]2CC[C@@]3(C)[C@H](CC[C@@H]4[C@@H]3C[C@@H](O)[C@]3(C)[C@@H](C5=CC(=O)OC5)CC[C@]43O)C2)C[C@H](O)[C@@H]1O[C@H]1C[C@H](O)[C@H](O[C@H]2C[C@H](O)[C@H](O[C@@H]3O[C@H](CO)[C@@H](O)[C@H](O)[C@H]3O)[C@@H](C)O2)[C@@H](C)O1` [DESLANOSIDE], the AC50 (in test [1]; at D(3) dopamine receptor; at Prothrombin; on Progesterone receptor; in test [2]; at Thromboxane A2 receptor) was over 30 µM in each case.
In the case of `CN[C@@H]1[C@H](O[C@H]2[C@H](O[C@H]3[C@H](O)[C@@H](O)[C@H](NC(=N)N)[C@@H](O)[C@@H]3NC(=N)N)O[C@@H](C)[C@]2(O)CO)O[C@@H](CO)[C@H](O)[C@H]1O` [DIHYDROSTREPTOMYCIN], the AC50 (in test [1]; at D(3) dopamine receptor; at Prothrombin; at Progesterone receptor; in test [2]; at Thromboxane A2 receptor) was over 30 µM throughout.
Consider `CC[C@H]1OC(=O)[C@H](C)[C@@H](O[C@H]2C[C@@](C)(OC)[C@@H](O)[C@H](C)O2)[C@H](C)[C@@H](O[C@@H]2O[C@H](C)C[C@H](N(C)C)[C@H]2O)[C@](C)(O)C[C@@H](C)[C@@H]2N[C@@H](COCCOC)O[C@H]([C@H]2C)[C@]1(C)O` [DIRITHROMYCIN], for which the AC50 (in test [1]; at D(3) dopamine receptor; at Prothrombin; on Progesterone receptor; in test [2]; on Thromboxane A2 receptor) was over 30 µM each time.
As for `CCCCc1oc2ccc(NS(C)(=O)=O)cc2c1C(=O)c1ccc(OCCCN(CCCC)CCCC)cc1` [DRONEDARONE], the AC50 in test [1] is 2.39 µM; on D(3) dopamine receptor, 0.642 µM; at Prothrombin, over 30 µM; at Progesterone receptor it was 0.64 µM; in test [2], 3.98 µM; at Thromboxane A2 receptor, 14.7 µM.
Take `CNC[C@H](O)c1ccc(O)c(O)c1` [EPINEPHRINE]: the AC50 in test [3] and in test [4] was over 30 µM throughout.
Consider `CCCCCCCN(CC)CCCC(O)c1ccc(NS(C)(=O)=O)cc1` (stereo not drawn) [IBUTILIDE], for which the AC50 in test [3] and in test [4] was over 30 µM in each case.
For `C[N+]1(C)CCCC(OC(=O)C(O)(c2ccccc2)c2ccccc2)C1` (stereo not drawn) [MEPENZOLATE], the AC50 (on D(3) dopamine receptor; on Prothrombin; at Progesterone receptor; in test [2]; on Thromboxane A2 receptor) was over 30 µM each time.
`Cn1cc(C(=O)[C@@H]2CCc3nc[nH]c3C2)c2ccccc21` [RAMOSETRON]: the half-maximal activity concentration (AC50) in test [3] and in test [4] was over 30 µM each time.

For the origin of these results see ChEMBL document CHEMBL5291721, “A preclinical secondary pharmacology resource illuminates target-adverse drug reaction associations of marketed drugs” (Nat Commun, 2023).
